Values of other authors, collected in US20110143366A1, “PROTEIN BIOMARKERS FOR IN VITRO TESTING OF DEVELOPMENTAL TOXICITY AND ENBRYOTOXICITY OF CHEMICAL SUBSTANCES” (PROTEOSYS AG, priority 2008, published 2011).

Test system: Cardiomyocytes differentiated from murine embryonic stem cells (EST model)
Conditions: substances with known embryotoxic potency used in the EST model

Structure (SMILES) | Embryotoxicity class of the substance
CC(C)(S)[C@@H](N)C(=O)O [D-penicillamine] | non-embryotoxic
CC[C@H](C)C(=O)O[C@H]1C[C@@H](C)C=C2C=C[C@H](C)[C@H](CC[C@@H]3C[C@@H](O)CC(=O)O3)[C@H]21 [Lovastatin] | highly embryotoxic
O=[N+]([O-])c1ccc(Oc2ccc(Cl)cc2Cl)cc1 [Nitrofen] | highly embryotoxic
C[C@@H]1Cc2c(Cl)cc(C(=O)N[C@@H](Cc3ccccc3)C(=O)O)c(O)c2C(=O)O1 [Ochratoxin, Ochratoxin-A] | highly embryotoxic
CN(C)CCOC(C)(c1ccccc1)c1ccccn1 (centres unmarked) [doxylamine] | non-embryotoxic
CCN(CC)CCNC(=O)c1cc(Cl)c(N)cc1OC [metoclopramide] | non-embryotoxic
CC[C@H](C)C(=O)O[C@H]1C[C@H](O)C=C2C=C[C@H](C)[C@H](CC[C@@H](O)C[C@@H](O)CC(=O)O)[C@H]21 [pravastatin] | moderately embryotoxic
N#CCCN [β-aminoproprionitril] | non-embryotoxic
